Experimental findings from patent US10004701B2, “Methods and compositions for treating infection” (UNIVERSITY OF ROCHESTER, priority 2012, dated 2018) are described below.

Common to all, as to assay: AK assay 384-well format, Prestwick library screening
One assay deals with P. aeruginosa. The format is cell-based, Pseudomonas aeruginosa. The following applies: 50 μM final drug concentration; for fold induction at 50 µM: Pseudomonas aeruginosa, 3 h.
Assay [1] concerns A. baumannii strain 98-37-09. The class given is cell-based, Acinetobacter baumannii. The conditions noted are these: 50 μM final drug concentration; for fold induction at 50 µM: Acinetobacter baumannii, 983709, 3 h.
A further assay concerns E. coli. The class given is cell-based, Escherichia coli. The conditions noted are these: 50 μM final drug concentration; for fold induction at 50 µM: Escherichia coli, 3 h.
For the next assay, the system named is E. cloacae. The format is cell-based, Enterobacter cloacae. The conditions noted are these: 50 μM final drug concentration; for fold induction at 50 µM: Enterobacter cloacae, 3 h.
Assay [2] relates to S. aureus strain USA300-0114. The class given is cell-based, Staphylococcus aureus. The conditions noted are these: 50 μM final drug concentration; for fold induction at 50 µM: Staphylococcus aureus, USA300, 3 h.
The test system of the next assay is E. faecium. The class given is cell-based, Enterococcus faecium. The following applies: 50 μM final drug concentration; for fold induction at 50 µM: Enterococcus faecium, 3 h.
A further assay concerns K. pneumoniae. The class given is cell-based, Klebsiella pneumoniae. The conditions noted are these: 50 μM final drug concentration; for fold induction at 50 µM: Klebsiella pneumoniae, 3 h.
The mark [3] stands for this setting: 384-well format, cutoff for positive-scoring molecules 3-fold increase, read-out: AK-based Prestwick Library Screening Results, P. aeruginosa (increase in extracellular AK activity).
[4] abbreviates: 384-well format, cutoff for positive-scoring molecules 3-fold increase, read-out: AK-based Prestwick Library Screening Results, A. baumannii (increase in extracellular AK activity).
The mark [5] stands for this setting: 384-well format, cutoff for positive-scoring molecules 3-fold increase, read-out: AK-based Prestwick Library Screening Results, E. coli (increase in extracellular AK activity).
Where [6] appears, read: 384-well format, cutoff for positive-scoring molecules 3-fold increase, read-out: AK-based Prestwick Library Screening Results, E. cloacae (increase in extracellular AK activity).
Setting [7] is: 384-well format, cutoff for positive-scoring molecules 3-fold increase, read-out: AK-based Prestwick Library Screening Results, S. aureus (increase in extracellular AK activity).
Setting [8] is: 384-well format, cutoff for positive-scoring molecules 3-fold increase, read-out: AK-based Prestwick Library Screening Results, E. faecium (increase in extracellular AK activity).
[9] abbreviates: 384-well format, cutoff for positive-scoring molecules 3-fold increase, read-out: AK-based Prestwick Library Screening Results, K. pneumoniae (increase in extracellular AK activity).
The mark [10] stands for this setting: planktonic, cutoff for positive-scoring molecules 3-fold increase.
Where [11] appears, read: planktonic P. aeruginosa, 384-well, cutoff for positive-scoring molecules 3-fold increase, read-out: AK-based Prestwick Library Screening Results: P. aeruginosa (increase in extracellular AK activity).
The mark [12] stands for this setting: planktonic A. baumannii, 384-well, cutoff for positive-scoring molecules 3-fold increase, read-out: AK-based Prestwick Library Screening Results: A. baumannii (increase in extracellular AK activity).
Setting [13] is: planktonic E. cloacae, 384-well, cutoff for positive-scoring molecules 3-fold increase, read-out: AK-based Prestwick Library Screening Results: E. cloacae (increase in extracellular AK activity).
The mark [14] stands for this setting: planktonic S. aureus, 384-well, cutoff for positive-scoring molecules 3-fold increase, read-out: AK-based Prestwick Library Screening Results: S. aureus (increase in extracellular AK activity).
The mark [15] stands for this setting: planktonic E. faecium, 384-well, cutoff for positive-scoring molecules 3-fold increase, read-out: AK-based Prestwick Library Screening Results: E. faecium (increase in extracellular AK activity).
Where [16] appears, read: planktonic K. pneumoniae, 384-well, cutoff for positive-scoring molecules 3-fold increase, read-out: AK-based Prestwick Library Screening Results: K. pneumoniae (increase in extracellular AK activity).

Counter-ions that a name gives are not always drawn. Like-named read-outs stand apart in the source and are kept apart here.

As for `CC(=O)Nc1c(I)c(C(=O)N[C@H]2C(O)O[C@H](CO)[C@@H](O)[C@@H]2O)c(I)c(N(C)C(C)=O)c1I` (stereo partly shown) [Metrizamide], the fold induction at 50 µM in the assay on P. aeruginosa (planktonic, cutoff for positive 3-fold increase, read-out: AK-based Prestwick Library Screening Results, P. aeruginosa (fold increase in extracellular AK activity)) stood at 1.2; in assay [1] (planktonic, cutoff for positive 3-fold increase, read-out: AK-based Prestwick Library Screening Results, A. baumannii (fold increase in extracellular AK activity)) it was 1.3; in the assay on E. coli (planktonic, cutoff for positive 3-fold increase, read-out: AK-based Prestwick Library Screening Results, E. coli (fold increase in extracellular AK activity)), 1.2; in the assay with E. cloacae (planktonic, cutoff for positive 3-fold increase, read-out: AK-based Prestwick Library Screening Results, E. cloacae (fold increase in extracellular AK activity)) it was 1.3; in assay [2] (planktonic, cutoff for positive 3-fold increase, read-out: AK-based Prestwick Library Screening Results, S. aureus (fold increase in extracellular AK activity)), 1.2; in the assay with E. faecium (planktonic, cutoff for positive 3-fold increase, read-out: AK-based Prestwick Library Screening Results, E. faecium (fold increase in extracellular AK activity)), 1. Moreover, in the assay with K. pneumoniae (planktonic, cutoff for positive 3-fold increase, read-out: AK-based Prestwick Library Screening Results, K. pneumoniae (fold increase in extracellular AK activity)), the fold induction at 50 µM was determined as 1.
Take `Cc1ncc([N+](=O)[O-])n1CCO` [Metronidazole]: the fold induction at 50 µM with P. aeruginosa (setting [3]) was determined as 0.3; in assay [1] (setting [4]), 0.4; in the assay on E. coli (setting [5]), 0.4; in the assay on E. cloacae (setting [6]), 0.3; in assay [2] (setting [7]) it was 0.4; in the assay on E. faecium (setting [8]), 0.8. Further, in the assay on K. pneumoniae (setting [9]), the fold induction at 50 µM was found to be 0.4.
`CC(C)(C(=O)c1cccnc1)c1cccnc1` [Metyrapone]: the fold induction at 50 µM in the assay on P. aeruginosa (planktonic, cutoff for positive-scoring molecules 3-fold increase, read-out: AK-based Prestwick Library Screening Results, P. aeruginosa (fold increase in extracellular AK activity)) worked out at 1; in assay [1] (planktonic, cutoff for positive-scoring molecules 3-fold increase, read-out: AK-based Prestwick Library Screening Results, A. baumannii (fold increase in extracellular AK activity)) it was 1; in the assay with E. coli (planktonic, cutoff for positive-scoring molecules 3-fold increase, read-out: AK-based Prestwick Library Screening Results, E. coli (fold increase in extracellular AK activity)) it was 0.9; with E. cloacae (planktonic, cutoff for positive-scoring molecules 3-fold increase, read-out: AK-based Prestwick Library Screening Results, E. cloacae (fold increase in extracellular AK activity)) it was 1.2; in assay [2] (planktonic, cutoff for positive-scoring molecules 3-fold increase, read-out: AK-based Prestwick Library Screening Results, S. aureus (fold increase in extracellular AK activity)), 0.8; in the assay on E. faecium (planktonic, cutoff for positive-scoring molecules 3-fold increase, read-out: AK-based Prestwick Library Screening Results, E. faecium (fold increase in extracellular AK activity)), 0.8. Moreover, the fold induction at 50 µM with K. pneumoniae (planktonic, cutoff for positive-scoring molecules 3-fold increase, read-out: AK-based Prestwick Library Screening Results, K. pneumoniae (fold increase in extracellular AK activity)) came out at 0.7.
Turning to `C[C@@]1(O)CCOC(=O)C1` [Mevalonic-D, L acid lactone], the “AK-based Prestwick Library Screening Results, P. aeruginosa (fold increase in extracellular AK activity)” value in the assay with P. aeruginosa (setting [10]) is reported as 0.8. For the same compound, the “AK-based Prestwick Library Screening Results, A. baumannii (fold increase in extracellular AK activity)” value in assay [1] (setting [10]) is recorded as 0.9. For the same compound, the “AK-based Prestwick Library Screening Results, E. coli (fold increase in extracellular AK activity)” value with E. coli (setting [10]) turned out to be 1.0. Also, the “AK-based Prestwick Library Screening Results, E. cloacae (fold increase in extracellular AK activity)” value in the assay with E. cloacae (setting [10]) was 0.9. Moreover, in assay [2] (setting [10]), the “AK-based Prestwick Library Screening Results, S. aureus (fold increase in extracellular AK activity)” value amounted to 0.9. Besides, the “AK-based Prestwick Library Screening Results, E. faecium (fold increase in extracellular AK activity)” value in the assay on E. faecium (setting [10]) came out at 1.0. Besides, in the assay with K. pneumoniae (setting [10]), the “AK-based Prestwick Library Screening Results, K. pneumoniae (fold increase in extracellular AK activity)” value turned out to be 0.8.
On to `Cc1cccc(C)c1OCC(C)N` (stereo not shown) [Mexiletine hydrochloride], for which the fold induction at 50 µM with P. aeruginosa (setting [3]) worked out at 0.7; in assay [1] (setting [4]), 0.5; in the assay with E. coli (setting [5]), 0.6; in the assay with E. cloacae (setting [6]), 0.7; in assay [2] (setting [7]), 0.7; in the assay with E. faecium (setting [8]), 0.9. Besides, in the assay on K. pneumoniae (setting [9]), the fold induction at 50 µM came to 0.6.
For `CN1CCN2c3ccccc3Cc3ccccc3C2C1` (stereo not shown) [Mianserine hydrochloride], the fold induction at 50 µM in the assay on P. aeruginosa (setting [3]) stood at 0.8; in assay [1] (setting [4]) it was 0.8; with E. coli (setting [5]) it was 0.7; with E. cloacae (setting [6]), 0.7; in assay [2] (setting [7]) it was 0.7; with E. faecium (setting [8]) it was 0.9. For the same compound, the fold induction at 50 µM with K. pneumoniae (setting [9]) turned out to be 0.6.
Turning to `Clc1ccc(COC(Cn2ccnc2)c2ccc(Cl)cc2Cl)c(Cl)c1` (stereo not shown) [Miconazole], the fold induction at 50 µM with P. aeruginosa (setting [11]) was found to be 1.2; in assay [1] (setting [12]) it was 4.7; in the assay on E. coli (planktonic E. coli, 384-well, cutoff for positive-scoring molecules 3-fold increase, read-out: AK-based Prestwick Library Screening Results: E. coli (increase in extracellular AK activity)), 1.4; in the assay with E. cloacae (setting [13]), 1.6; in assay [2] (setting [14]) it was 2.2; in the assay on E. faecium (setting [15]), 2.5. In the assay on K. pneumoniae (setting [16]), the fold induction at 50 µM came to 1.4.
For `COc1ccc(OC)c(C(O)CNC(=O)CN)c1` (stereo not shown) [Midodrine hydrochloride], the fold induction at 50 µM is 0.9 with P. aeruginosa (setting [3]); 0.9 in assay [1] (setting [4]); 1 in the assay with E. coli (setting [5]); 1 in the assay with E. cloacae (setting [6]); 0.9 in assay [2] (setting [7]); 1 in the assay on E. faecium (setting [8]). Moreover, the fold induction at 50 µM with K. pneumoniae (setting [9]) was found to be 0.7.
Take `CC#C[C@]1(O)CC[C@H]2[C@@H]3CCC4=CC(=O)CCC4=C3[C@@H](c3ccc(N(C)C)cc3)C[C@@]21C` [Mifepristone]: the fold induction at 50 µM in the assay with P. aeruginosa (setting [11]) stood at 1; in assay [1] (setting [12]), 1.1; in the assay on E. coli (planktonic E. coli, 384-well, […], read-out: AK-based Prestwick Library Screening Results: E. coli (increase in extracellular AK activity)), 1.3; with E. cloacae (setting [13]), 1.4; in assay [2] (setting [14]), 0.7; with E. faecium (setting [15]), 1.1. For the same compound, the fold induction at 50 µM with K. pneumoniae (setting [16]) was 0.9.
Take `Cc1[nH]c(=O)c(C#N)cc1-c1ccncc1` [Milrinone]: the fold induction at 50 µM was 0.9 in the assay with P. aeruginosa (planktonic P. aeruginosa, positive cutoff 3-fold increase, read-out: AK-based Prestwick library screening result, P. aeruginosa (fold increase in extracellular AK activity)); 0.8 in assay [1] (planktonic A. baumannii, positive cutoff 3-fold increase, read-out: AK-based Prestwick library screening result, A. baumannii (fold increase in extracellular AK activity)); 0.8 in the assay with E. coli (planktonic E. coli, positive cutoff 3-fold increase, read-out: AK-based Prestwick library screening result, E. coli (fold increase in extracellular AK activity)); 0.9 in the assay with E. cloacae (planktonic E. cloacae, positive cutoff 3-fold increase, read-out: AK-based Prestwick library screening result, E. cloacae (fold increase in extracellular AK activity)); 0.7 in assay [2] (planktonic S. aureus, positive cutoff 3-fold increase, read-out: AK-based Prestwick library screening result, S. aureus (fold increase in extracellular AK activity)); 0.9 in the assay with E. faecium (planktonic E. faecium, positive cutoff 3-fold increase, read-out: AK-based Prestwick library screening result, E. faecium (fold increase in extracellular AK activity)). For the same compound, the fold induction at 50 µM in the assay with K. pneumoniae (planktonic K. pneumoniae, positive cutoff 3-fold increase, read-out: AK-based Prestwick library screening result, K. pneumoniae (fold increase in extracellular AK activity)) turned out to be 0.8.
